From PubChem BioAssay AID449762 (Southern Research Specialized Biocontainment Screening …, 2010)
Records with an inconclusive call do not appear.

tested on: M. tuberculosis H37Rv growth inhibition, 7H9 media; assay: M. tuberculosis growth inhibition, HTS (AID 449762); conditions: measured here: IC90 growth inhibition;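 further: bacterial growth assessed after seven days of incubation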

SMILES	IC90 [µM]
CC(C)(C)C(=O)NC(=S)NNC(=O)c1sc2ccccc2c1Cl	> 100
COc1ccc(NC(=O)CSC2=C(C#N)C(c3ccco3)C(C(=O)Nc3nc4ccccc4s3)=C(C)N2)cc1 (stereo unspecified)	7.26
O=C(CCCCCNc1nc(=S)[nH]c2ccccc12)N1CCN(c2ccccn2)CC1	> 100
N#CC(C(=O)Nc1ccccc1)=C1Nc2ccccc2N1	> 100
CN(CC(=O)Nc1ccccc1Br)C(=O)c1cccnc1Nc1cccc(C(F)(F)F)c1	40.7
CN(C(=O)c1cccc(Nc2ccc(-c3ccc4c(c3)OCCO4)nn2)c1)C1CCCCC1	> 100
Nn1c(SCc2ccccc2)nc2ccccc21	> 100
CCOc1cc(/C=C2\COc3ccccc3C2=O)cc(Br)c1OCC(=O)N(C)C	6.63
O=C(Nc1cccc(-c2nc3ccccc3s2)c1)c1cc(-n2cnnc2)ccc1Cl	13.1
CCOC(=O)N1CCN(C(=O)CSc2nnc(-c3ccc(Cl)s3)o2)CC1	34.1
CCOc1ccc2nc(N/C(N)=N/C(=S)Nc3cccc(C)c3)nc(C)c2c1	> 100
CC1CC2=C(CC1/C=N/NC(N)=S)C(C)(C)CCC2 (stereo unspecified)	24.6
COC(=O)c1ccc(C(=O)OC)c(NC(=O)CSc2cccc[n+]2[O-])c1	3.37
O=C(CSc1n[nH]c(-c2ccccc2)n1)Nc1ccc(Br)cn1	> 100
CC1CCCC/C1=N\NC(=S)NCCc1ccccc1 (stereo unspecified)	24.6
COC(=O)[C@H](CCSC)NC(=O)N1CCN(c2cccc(C(F)(F)F)c2)CC1	40.5
CCOc1ccc(C(=O)CCN2CCCCCC2)cc1	17.4
Cc1cccc2c1N(CCCOc1ccc(C(C)(C)C)cc1)C(=O)C2=O	20.7
c1ccc(CCNc2ncnc3c2cnn3-c2ccccc2)cc1	> 50
CCOC(=O)c1ccccc1NC(=O)COc1coc(CN2CCc3ccccc32)cc1=O	38.2
O=c1[nH]c2ccccc2c2oc(CCl)nc12	19.2
Cc1ccc(NC(=O)C2=C(O)CCn3c2nc2ccccc23)cc1	20.6

SMILES	IC90 [µM]
O=C(/C=C/c1ccc(O)c([N+](=O)[O-])c1)c1ccc2ccccc2c1	25.6
Cc1ccc(C2=NNC3(CCOC(C)(C)C3)S2)cc1 (stereo unspecified)	14.9
O=C(CSc1nc2ccccc2c(=O)[nH]1)NCc1ccc(Cl)cc1	2.7
COc1nn(-c2ccccc2)c(=O)c(Cl)c1Cl	9.06
NC1=NC[C@H](CC2CCCCC2)N1CCc1cc(C(F)(F)F)cc(C(F)(F)F)c1	11.6
COc1cccc(NC(=O)CNC(=O)Cn2cnc3sc4c(c3c2=O)CCCC4)c1	> 100
CC1CCC(NC(=O)c2cc3c(s2)CCCC3)CC1 (stereo unspecified)	57.1
Cc1sc2ncnc(N3CCC(C(=O)NCC(=O)Nc4ccc(F)c(F)c4)CC3)c2c1C	50
COCCCNC(=O)/C(C#N)=C/c1c(N2CCN(c3cccc(Cl)c3)CC2)nc2c(C)cccn2c1=O	> 100
C=CCNC(=O)c1onc(CCl)c1C(=O)OC	5.93
COc1cccc(-c2nnc(NC(=O)c3ccc(S(=O)(=O)N4CCOCC4)cc3)o2)c1	26.7
CN1/C(=C\C(=O)C[n+]2ccc(C(=O)c3ccccc3)cc2)C(C)(C)c2ccccc21	15.3
O=C(c1cc(COc2ccc(F)cc2F)on1)N1CCCC(c2ccccc2)C1 (stereo unspecified)	39.8
O=C(OCCN1C(=O)c2ccccc2C1=O)c1cc2ccccc2o1	> 25
Cc1n[nH]c(=S)n1/N=C/c1cccc(OCc2ccccc2)c1	> 100
COc1cc(NC(=O)c2cccs2)c(C(=O)OCC(=O)NCc2ccco2)cc1OC	> 100
C=C(C)C1Cc2c(C)nn(-c3nc(C)cc(C)n3)c2C1 (stereo unspecified)	6.74
CCOC(=O)CN[C@H]1CCC2C3CC=C4C[C@@H](O)CC[C@]4(C)C3CC[C@@]21C (stereo partly specified)	8.37
Cn1/c(=N/NC(=O)c2cccc(OC(F)F)c2)sc2ccccc21	22.7
N#Cc1ccc(CN2CCN(CC(=O)NCCc3ccc(Cl)cc3Cl)CC2)cc1	54
O=C(COc1cc(O)c2c(=O)c3ccccc3oc2c1)OCc1ccccc1	> 100
CCOC(=O)/C(=N/Nc1ccc(OC)cc1)N1CCCc2ccccc21	> 100

SMILES	IC90 [µM]
COc1ccc(C(=O)c2c(C(F)(F)F)oc3c2C(=O)c2ccccc2C3=O)cc1OC	17.7
CCOCCN1CCN(c2c(CC)c(C)nc3cc(-c4cc(OC)cc(OC)c4)nn23)CC1	38.9
COc1ccc(Cl)cc1C(=O)O/N=C(\N)c1ccccn1	> 100
COc1ccccc1C(=O)NC(=Nc1nc2ccccc2o1)NC(=O)c1ccccc1OC	> 100
Oc1ccccc1/C=N/NC(=S)NC1CC2CC1C1C=CCC21 (stereo unspecified)	12.3
COc1ccc(N2CCN(C(=O)c3cc4c(C)nc5ccccc5c4o3)CC2)cc1	32.5
Cc1cc(C)n2nc(N)c(N=Nc3ccccc3)c2n1	3.27
Cc1ccc(C2(c3ccc(C)cc3)CC2C(=O)Nc2ccc([N+](=O)[O-])cc2O)cc1 (stereo unspecified)	27.1
CCN1/C(=C/C=C/c2oc3ccc(-c4ccccc4)cc3[n+]2CC)Oc2ccc(-c3ccccc3)cc21	4.74
CCOC(=O)c1nnc(-c2ccccc2)nc1NCc1ccccc1	> 100
O=c1cc(O)c2sc3nc(-c4cccnc4)cc(C(F)(F)F)c3c2[nH]1	35.6
C#CCOC(=O)/C(=C/C=C/c1ccccc1)NC(=O)c1ccccc1	43.3
C(=C\c1ccccc1)/C=N/Nc1nc2ccccc2s1	> 100
CCCCCCCCn1c2c(c(=N)c3c1CCC3)CCCC2	26.4
C/C(CC(=O)Nc1ccc2c(c1)OCCO2)=N\NC(=O)c1ccccc1F	> 100
Cc1ccc(/C=C/C(=O)N2CC(C)CC(C)C2)o1 (stereo unspecified)	22.1
CC(c1ccccc1)N1CCN(C(=O)CCl)CC1 (stereo unspecified)	3.24
CN(C)c1ccnc2c[cH-]cc12.[Fe].c1ccc(-[c-]2[c-](-c3ccccc3)[c-](-c3ccccc3)[c-](-c3ccccc3)[c-]2-c2ccccc2)cc1 (stereo unspecified)	17.4
CCSc1ccc2c(c1)N(CCCN1CCN(C)CC1)c1ccccc1S2	26.5
CCCCOc1ccc(C(=O)N/N=C/c2ccc(OCCN3CCCCC3)c(OC)c2)cc1	44.6
CCn1cc([N+](=O)[O-])c(C(=O)N2N=C(c3ccc4ccccc4c3)CC2c2ccccc2O)n1 (stereo unspecified)	> 100
C#CCOc1ccc2c(c1)c(C(C)=O)c(C)n2Cc1ccccc1	> 100

SMILES	IC90 [µM]
COC(=O)C(Cc1ccc(OC(=O)c2ccc(C(F)(F)F)cc2)cc1)N1Cc2ccccc2C1=O (stereo unspecified)	> 100
CCCCCCCCSc1nnc(CSc2nc3nc(C)cc(C)n3n2)o1	8.29
Cc1cc(O)c2c(c1)C(=O)c1cc(O)cc(O)c1C2=O	> 100
CCCn1c(CC)nc([N+](=O)[O-])c1S(=O)(=O)c1ccccc1	22.6
CCN(CC)S(=O)(=O)c1ccc(/C=C/C(=O)OCC#N)cc1	39.6
COc1ccc(-c2c(C#N)c(SCC(=O)c3cc4ccccc4oc3=O)nc(C)c2C(=O)Nc2ccccc2)cc1	75.6
CC(=O)n1cc(N(C(=O)CCl)c2ccc(Cl)cc2)c2ccccc21	3.99
Cc1ccc(Cn2nnnc2CN2CCC(c3nc4ccc(Cl)cc4[nH]3)CC2)cc1	35.9
Cc1cccc(NC(=O)CCSc2nnc(Cc3ccccc3)o2)c1	49.3
Cc1ccc(C2=NN(C)c3nc4ccccc4n3C2)cc1	78.3
c1ccc(Nc2nc(N3CCCCC3)nc(N3CCNCC3)n2)cc1	68.9
COc1ccc(SN=C2C(C)=CC(=O)C=C2C)cc1	13.5
C/C(=N\NC(=O)c1nnn(-c2nonc2N)c1CN(C)c1ccccc1)c1ccccn1	15.7
COc1ccc(-n2nc3c(c2NC(=O)CCl)CSC3)cc1	9.39
COc1ccccc1N(O)C1CC(=O)N(c2ccc(Br)cc2)C1=O (stereo unspecified)	32.3
Cc1ccc(C)c(NC(=O)c2cc(-c3ccccc3)nn2-c2ccccc2)c1	59.6
C=CCOC(=O)COc1ccc2c(C)c(CC)c(=O)oc2c1	2.21
O=C(NCCc1ccc(Cl)cc1)c1ccc(CS(=O)Cc2ccc(Cl)cc2)o1 (stereo unspecified)	49.1
Cc1ccc(NN=C2c3ccccc3-c3ccccc32)cc1	> 100
CCOc1cc(/C=N/Nc2nc(Nc3ccccc3)nc(N3CCCCC3)n2)ccc1OCC(=O)O	23.4
